Literature values as cited in patent US20090143360A1, “Oxcarbazepine Formulation” (priority 2005, published 2009).

- Solubility in water: very low
Compound: NC(=O)N1c2ccccc2CC(=O)c2ccccc21 [Oxcarbazepine, 10,11-Dihydro-10-oxo-5H-dibenz[b,f]azepine-5-carboxamide]
